# Reference: patent publication US20230049917A1, “Pharmaceutical Composition of CASR Modulators and Methods and Uses Thereof” (Lupin Limited, priority 2019, published 2023)
# Assays:
# cytochrome P450 2D6 = cytochrome P450 2D6 (Homo sapiens, UniProt P10635); assay: Cytochrome P450 2D6 liability; format: in vitro ADME
# [1] = biological target: human Ether-a-go-go-related gene (hERG) (Homo sapiens, UniProt Q12809); assay: hERG liability
# [2] = First-in-human Phase 1 single- and multiple-dose study; format: in vivo; conditions: healthy subjects
# [3] = Phase 2 study: safety assessments (adverse events); format: in vivo, human; conditions: for patients who discontinued the study due to adverse drug reactions: Main Study
# Experimental: For safety assessments, safety was assessed through the summary of adverse events (AE), physical examinations and electrocardiogram (ECG) measurements, vital signs (e.g., blood pressure, pulse rate, respiratory rate and body temperature), body weight and laboratory data (e.g., haemtaology, biochemistry and urinalysis). All AEs (both serious and non-serious) were derived from spontaneous, unsolicited reports of patients, by observation and by routine open questions. The AE reporting extended from date of informed consent until completion of the final visit. Any ongoing AE at EOS visit was followed until the outcome was evident and resolved, clinically stabilized or a plausible explanation was found. Pre-existing diseases including deranged laboratory values (before participating in the study) were not considered AEs, unless the disease worsened during the study period. Signs and symptoms clearly associated with the disease under study (including symptoms of disease progression) were reported as AEs if they were newly emergent, or were determined as severe or worsening, or if deterioration of disease-related signs and symptoms to be caused directly by the study drug. Physical examination, vital signs (measured in a sitting position after resting for at least 3 minutes), ECG (recorded by qualified personnel after the patient had been resting in the supine position for at least 3 minutes) and clinical laboratory examinations were done as part of safety assessments. Abnormal laboratory values/ECGs/vital signs/physical examination were reported as AEs only if the abnormality was clinically relevant or significant or believed that the abnormality must be reported as an AE. Any dose (and associated symptoms) given to the patient that exceeded the dose prescribed to the patient, at a minimum, was recorded as a non-serious AE in the patient file and CRF/electronic CRF. Any case of overdose leading to an AE or SAE had to be reported to medical monitor according to reporting requirements. In case of an accidental overdose, the patient had to be monitored by for any adverse clinical events, as deemed necessary.
# [4] = patients not on dialysis, 5 mg BID (N = 16)
# [5] = patients not on dialysis, 10 mg QD (N = 37)
# [6] = patients not on dialysis, Total in Compound 3 Group (N = 71)
# [7] = patients on dialysis, 10 mg QD (N = 34)
# [8] = patients on dialysis, 20 mg BID (N = 19)
# [9] = patients on dialysis, 25 mg QD (N = 35)
# [10] = patients on dialysis, Total in Compound 3 Group (N = 88)
# Sequence of human Ether-a-go-go-related gene (hERG) (Q12809 whole entry): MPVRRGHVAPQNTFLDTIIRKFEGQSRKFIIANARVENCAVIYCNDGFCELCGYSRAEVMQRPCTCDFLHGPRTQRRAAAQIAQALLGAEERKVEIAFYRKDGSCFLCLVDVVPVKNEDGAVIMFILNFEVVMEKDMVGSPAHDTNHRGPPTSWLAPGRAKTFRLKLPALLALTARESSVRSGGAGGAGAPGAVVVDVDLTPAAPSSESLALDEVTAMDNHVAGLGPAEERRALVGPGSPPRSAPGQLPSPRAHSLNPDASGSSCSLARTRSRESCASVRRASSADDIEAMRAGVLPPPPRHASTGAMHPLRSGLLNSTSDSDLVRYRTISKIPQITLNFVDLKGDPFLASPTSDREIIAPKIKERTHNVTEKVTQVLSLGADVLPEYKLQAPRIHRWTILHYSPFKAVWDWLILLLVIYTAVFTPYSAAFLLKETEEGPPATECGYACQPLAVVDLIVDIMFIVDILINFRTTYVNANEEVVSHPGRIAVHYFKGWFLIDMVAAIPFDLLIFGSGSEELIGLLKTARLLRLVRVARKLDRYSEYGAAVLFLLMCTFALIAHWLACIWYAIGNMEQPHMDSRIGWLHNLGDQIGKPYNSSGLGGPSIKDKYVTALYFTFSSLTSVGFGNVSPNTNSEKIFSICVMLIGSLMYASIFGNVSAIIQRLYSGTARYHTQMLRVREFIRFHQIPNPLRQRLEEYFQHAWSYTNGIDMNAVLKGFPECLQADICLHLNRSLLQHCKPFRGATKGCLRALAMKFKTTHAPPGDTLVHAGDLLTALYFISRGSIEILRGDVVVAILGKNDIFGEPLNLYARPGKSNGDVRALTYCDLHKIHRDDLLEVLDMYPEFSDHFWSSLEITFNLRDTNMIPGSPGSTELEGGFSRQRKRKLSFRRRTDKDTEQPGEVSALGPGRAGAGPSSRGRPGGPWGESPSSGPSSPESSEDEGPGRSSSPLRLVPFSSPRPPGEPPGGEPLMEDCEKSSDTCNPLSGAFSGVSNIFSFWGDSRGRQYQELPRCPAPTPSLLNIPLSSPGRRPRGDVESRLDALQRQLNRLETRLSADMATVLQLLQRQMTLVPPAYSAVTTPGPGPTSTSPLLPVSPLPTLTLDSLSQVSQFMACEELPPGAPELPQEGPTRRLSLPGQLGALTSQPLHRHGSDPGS
# Sequence of cytochrome P450 2D6 (P10635 whole entry, species assumed): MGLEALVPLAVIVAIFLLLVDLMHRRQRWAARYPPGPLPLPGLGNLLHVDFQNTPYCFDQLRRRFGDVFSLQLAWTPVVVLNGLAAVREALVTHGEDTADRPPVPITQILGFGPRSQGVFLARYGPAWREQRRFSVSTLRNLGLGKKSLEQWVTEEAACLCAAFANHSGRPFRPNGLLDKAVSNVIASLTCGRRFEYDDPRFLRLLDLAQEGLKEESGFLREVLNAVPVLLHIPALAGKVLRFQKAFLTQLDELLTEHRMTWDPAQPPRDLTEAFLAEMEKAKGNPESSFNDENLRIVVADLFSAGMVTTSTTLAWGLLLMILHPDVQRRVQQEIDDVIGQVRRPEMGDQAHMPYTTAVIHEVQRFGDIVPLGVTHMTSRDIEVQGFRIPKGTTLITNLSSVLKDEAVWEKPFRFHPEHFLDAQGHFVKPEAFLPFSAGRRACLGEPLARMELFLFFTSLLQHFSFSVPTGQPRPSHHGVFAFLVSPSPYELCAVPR
smiles,measurement,setting,value
"Cc1ccc([C@@H]2C[C@H](CN[C@H](C)c3cccc4ccccc34)Oc3ccccc32)cc1C(=O)O.Cl [Compound 3, 2-methyl-5-((2R,4S)-2-((((R)-1-(naphthalen-1-yl)ethyl)amino)methyl)chroman-4-yl)benzoic acid hydrochloride]",cytochrome P450 2D6 liabilities,cytochrome P450 2D6,devoid
same,hERG liabilities,[1],devoid
same,safety and tolerability,[2],safe and well tolerated
same,patients with hypocalcaemia considered by the investigator to be related to the study drug,"[3]; 1 patient each in 10 mg QD, 25 mg QD and 20 mg BID arms",3 patients
same,symptomatic hypocalcemic effect,"[3]; CKD patients, dose range 5 mg to 50 mg",no symptomatic hypocalcemic effect
same,patients who discontinued the study due to adverse drug reactions,[3]; not on dialysis group,None
same,patients who discontinued the study due to adverse drug reactions,[3]; on dialysis group,None
same,adverse events of hyperphosphatemia,"[3]; Phase 2 study, all patients",no adverse events of hyperphosphatemia
same,patients experiencing adverse events of hypocalcaemia or hyperphosphatemia,[3]; patients not on dialysis,none
same,Adverse event incidence: Diarrhea,[3]; [4],0%
same,Adverse event incidence: Nausea,[3]; [4],0%
same,Adverse event incidence: Vomiting,[3]; [4],0%
same,Adverse event incidence: Diarrhea,[3]; [5],2.7%
same,Adverse event incidence: Nausea,[3]; [5],0%
same,Adverse event incidence: Vomiting,[3]; [5],0%
same,Adverse event incidence: Diarrhea,[3]; [6],2.7%
same,Adverse event incidence: Nausea,[3]; [6],0%
same,Adverse event incidence: Vomiting,[3]; [6],0%
same,Adverse event incidence: Diarrhea,[3]; [7],0%
same,Adverse event incidence: Nausea,[3]; [7],0%
same,Adverse event incidence: Vomiting,[3]; [7],0%
same,Adverse event incidence: Diarrhea,[3]; [8],0%
same,Adverse event incidence: Nausea,[3]; [8],5.3%
same,Adverse event incidence: Vomiting,[3]; [8],0%
same,Adverse event incidence: Diarrhea,[3]; [9],0%
same,Adverse event incidence: Nausea,[3]; [9],0%
same,Adverse event incidence: Vomiting,[3]; [9],0%
same,Adverse event incidence: Diarrhea,[3]; [10],0%
same,Adverse event incidence: Nausea,[3]; [10],5.3%
same,Adverse event incidence: Vomiting,[3]; [10],0%
